Patent publication US5955508A, “Method for the enhancement of lymphocyte activity against opportunistic microbial pathogens” (priority 1996, dated 1999)
Where “and” joins values, the source holds several entries; their conditions need not be identical. Equal values may be shown once. Entries after “also recorded” stand apart in the source; their conditions may differ.

Experiments:
Candida albicans = assay: Lymphocyte mediated antifungal activity against Candida albicans (growth inhibition), lymphocytes from HIV+ patients; type: cell-based; conditions: for mean change in antifungal activity: 50 ng/ml d-FEN vs no d-FEN; for Antifungal Units, d-FEN: one line per patient and Mean + SEM
From the text: (§1) The T lymphocytes analyzed were obtained from 20 HIV+ patients (9 females and 11 males, 25-48 years of age). The patients were diagnosed as being HIV+ within the past 0.5-9 years, and 15 are being treated with antiviral drugs. The subjects' study identification number (indicates the order in which bloods were drawn), CD4+ and CD8+ counts (determined March, 1996, as part of the present study), age, sex, date of diagnosis, and pharmacotherapy are provided in Table 1.
(§2) The patients fell into one of three groups (Groups A, B and C) based on their CD4+ cell counts (the number of T helper cells/μL blood): 8 of the HIV+ patients had normal (or above normal) CD4+ levels (normal range 550-1500/μL); 4 had levels between 200-499/μL; and, 7 had CD4+ counts equal to or below 200/μL. This latter group of patients by definition have AIDS (see Table 41-3 from K. J. Ryan (Ed.), Sherris Medical Microbiology, Third Edition, Appleton & Lange:Norwalk, Conn., 1994, p. 547). These patients, moreover, have had recurrent candidiasis and other opportunistic infections which have become increasingly difficult to manage. All of the patients' CD8+ cell (cytotoxic T lymphocytes) counts were within or above normal range (300-1000/μL). We were unable to obtain enough lymphocytes from one patient (#4) to analyze their antifungal activity.
(§3) The experimental protocol for this project is illustrated in Table A. Note that the cultures were exposed to two doses (5 and 50 ng/ml) of d-FEN in the mitogenesis assays, whereas only one dose (50 ng/ml) was used in the antifungal and cytokine release assays.
Isolation of Peripheral Blood Mononuclear Cells. Forty ml of venous blood were aseptically drawn into sterile 10 ml tubes containing 20 U/ml preservative free heparin, diluted with an equal volume of Hank's Balanced Salt Solution (HBSS), layered over Lymphocyte Separation Medium (LSM, Bionetics, Kensington, Md.), and centrifuged at 1,000×g for 30 min. After centrifugation, the mononuclear cell layer was recovered from the interface and washed twice in HBSS prior to further manipulation and then enumerated microscopically.
Lymphocyte Mediated Antifungal Activity Against Candida albicans: Fungal Culture. C. albicans cultures were stored at 25° C. on Sabouraud's dextrose agar (SDA) (Becton Dickinson and Co., Cockeysville, Md.). Cells used for experimentation were cultured overnight at 37° C. on SDA, collected as isolated colonies, and washed once in HBSS. Yeast cultures were enumerated microscopically. C. albicans were inoculated into RPMI 1640 medium. C. albicans hyphal forms were obtained by incubation at 37° C. with 5% CO2 in RPMI 1640. Inoculum of 2×10^5 yeast cells/ml yield approximately 100% hyphal fragments when incubated for 2 h at 37° C.
Activation of Lymphocytes. Human peripheral blood lymphocytes were placed in culture medium containing 5×10^-5 2-mercaptoethanol (2-ME) at a concentration of 2.0×10^6 cells/ml with d-FEN (50 ng/ml was added on the second day of culture) and 1,500 U/ml IL-2 (Hoffman-La Roche Inc., Nutley, N.J.) in Falcon, Multiwell plates (Becton Dickinson, Lincoln Park, N.J.) for 3 and 4 days. The cells were harvested following incubation at 37° C., overlaid onto LSM and centrifuged at 1,000×g for 20 min. The cells at the interface were washed twice with HBSS prior to assessment of functional activity.
Measurement of the Inhibition of C. albicans Growth. Fungal cells used for experimentation were collected from isolated, overnight colonies on SDA, and washed once in HBSS. Yeast were resuspended to 2×10^5 /ml in RPMI 1640 and 5×10^3 yeast placed in individual wells of 96 well flat bottom plates (Corning Glass Works, #25861, Corning, N.Y.). […]

lymphocyte functions = conditions: Clancy and Lorens, 1996, Mathews et al.; cited from earlier work
CD4+ lymphocytes = assay: Con A induced lymphoproliferation of PBMC (CD4+ lymphocytes); type: cell-based, human; conditions: for comparison of 5 ng/ml with 50 ng/ml d-FEN: 5 ng/ml vs 50 ng/ml
From the text: as §1, §2
Peripheral blood (40 ml) was drawn (Mar. 29-30, 1996) from the patients on a "first come, first serve" basis when they arrived at the Ponce Center for Diagnosis and Treatment (Dr. Hiram Valazquez, Medical Director) for their monthly checkup and who volunteered their blood for experimental analysis. In addition, blood was drawn from 4 healthy HIV- volunteers in order to study their lymphoproliferation response to Con A. The lymphocytes were isolated and processed as detailed below.
as §3
Cell Proliferation Analysis. Lymphoid cell suspensions were cultured in microtiter plates (Corning Glass Works, Corning, N.Y.) in the presence of 3.0 μg/ml Con-A (Pharmacia, Uppsala, Sweden) for 3 and 4 days at 37° C. d-FEN (5 and 50 ng/ml) was added the second day of culture. The cells were cultured at 2×10^5 /well in RPMI 1640 with 1% fetal bovine serum. The cells then were pulsed for 6.0 h with 1.0 μCi of [^3 H]-thymidine (DuPont-New England Nuclear Research, Boston, Mass.), harvested, and [^3 H]-thymidine incorporation determined with a liquid scintillation counter. The data are reported as a percent increase in the stimulation in dextrofenfluramine values.
The data were analyzed by a one- or two-way analysis of variance (ANOVA) with repeated measures where appropriate ([…] version 1; Jandel, San Rafael, Calif.). Significant main effects were subjected to post hoc analysis using the Student-Newman Keuls All Pairwise Multiple Comparisons test or the Mann-Whitney U test.
^A The stimulatory effect of dFEN is expressed as a percent increase
in the stimulation index of PBMCs cultured with the two doses of dFEN
versus that cultured without dFEN. The data represent the greatest
stimulation that occurred after the lymphocytes had been in culture for 3
or 4 days. The mitogenic activity of the PBMC (CD4+ lymphocytes) index of
stimulation was calculated as follows: […]

Structure (SMILES): CCN[C@@H](C)Cc1cccc(C(F)(F)F)c1 [d-FEN]
- mean change in antifungal activity (Candida albicans; Group B): -13%
- mean change in antifungal activity (Candida albicans; Group C (AIDS)): +100%
- patients showing increased antifungal activity (Candida albicans; 50 ng/ml d-FEN, Group A): 7 of the 8
- Antifungal Units, d-FEN (Candida albicans; 50 ng/ml d-FEN, Group A (normal CD4+ HIV+ patients)): 62 Antifungal Units and 84 Antifungal Units and 82 Antifungal Units and 144 Antifungal Units and 31 Antifungal Units and 60 Antifungal Units and 236 Antifungal Units and 95 ± 23 Antifungal Units
- antifungal activity response in words (Candida albicans; 50 ng/ml d-FEN, Group B): mixed response
- Antifungal Units, d-FEN (Candida albicans; 50 ng/ml d-FEN, Group B (CD4+ 200-499/μL)): 16 Antifungal Units and 164 Antifungal Units and 120 Antifungal Units and 75 Antifungal Units and 94 ± 32 Antifungal Units
- patients showing increased antifungal activity (Candida albicans; 50 ng/ml d-FEN, Group C (AIDS)): all 7 of the AIDS patients (Group C) evidenced increased
- Antifungal Units, d-FEN (Candida albicans; 50 ng/ml d-FEN, Group C (AIDS)): 130 Antifungal Units and 321 Antifungal Units and 164 Antifungal Units and 355 Antifungal Units and 307 Antifungal Units and 314 Antifungal Units and 394 Antifungal Units and 284 ± 37 Antifungal Units
- antifungal activity of Group C vs other two groups (Candida albicans; 50 ng/ml d-FEN, one-way ANOVA p<0.001): significantly greater in the presence of d-FEN
- immune functions in experimental animal models, in words (lymphocyte functions): augment T and B lymphocyte functions, to increase cell-mediated cytotoxicity for natural killer cell (NK) tumor targets and to enhance cell-mediated activities for opportunistic microbial pathogens
- mitogenesis of human controls and AIDS patients vs non-AIDS HIV+ patients (CD4+ lymphocytes; 5 ng/ml d-FEN): greater mitogenesis in the presence of 5 ng/ml d-FEN than the non-AIDS HIV+ patients
- comparison of 5 ng/ml with 50 ng/ml d-FEN (CD4+ lymphocytes): lymphocytes obtained from human control and AIDS subjects respond better in vitro to a low (5 ng/ml) than to a high (50 ng/ml) dose; also recorded: greater lymphoproliferation in AIDS derived lymphocytes than 50 ng/ml
- comparison of 5 ng/ml with 50 ng/ml d-FEN (CD4+ lymphocytes; listed as dextrofenfluramine): more effective than 50 ng/ml
- mitogenesis of non-AIDS HIV+ patients (Groups A+B) vs AIDS group (CD4+ lymphocytes; 50 ng/ml d-FEN): greater mitogenesis than the AIDS group (Group C)
- dose effect, two way ANOVA (CD4+ lymphocytes; 5 vs 50 ng/ml, p=0.15): did not reach significance
- activation at 0.005 µg/mL (CD4+ lymphocytes; Homo sapiens, Lymphocyte, 5 ng/ml d-FEN, Groups A + B (non-AIDS HIV+), Con A, read-out: Increase in Index of Stimulation, Mean ± SEM): 17 ± 8%
- activation at 0.05 µg/mL (CD4+ lymphocytes; Homo sapiens, Lymphocyte, 50 ng/ml d-FEN, Groups A + B (non-AIDS HIV+), Con A, read-out: Increase in Index of Stimulation, Mean ± SEM): 50 ± 8%
- proliferation, AIDS patient #15 (CD4+ lymphocytes; no detectable CD4+ cells): did not show any proliferation
